Test results as given in patent US12102660B2, “Association of N-acetylcysteine and colistin for use in bacterial infections” (Zambon S.P.A., priority 2017, dated 2024).
Like-named read-outs stand apart in the source and are kept apart here.

How the values were obtained:
[1] = system: S. maltophilia clinical isolates; assay: MIC determination and classic checkerboard assays (colistin, NAC); assay type: cell-based, Stenotrophomonas maltophilia; settings: for MIC: Stenotrophomonas maltophilia
Experimental: (§1) In vitro antimicrobial synergism between NAC and colistin was determined following EUCAST guidelines. In particular, the total fractional inhibitory concentration (ΣFIC) was calculated as follows: ΣFIC equals FIC of agent A plus FIC of agent B, where the FIC of agent A or B is the minimum inhibitory concentration (MIC) of agent A or B in the presence of the other divided by the MIC of agent A or B alone. Synergism was defined as a ΣFIC value of <0.5.
Twenty S. maltophilia clinical isolates were tested, including also four isolates from patients affected by cystic fibrosis (CF). […] Synergism between colistin (range 0.25-256 μg/ml) and NAC (range 0.5-32 mg/ml) was investigated by classic checkerboard assays. Fraction inhibitory concentration indices (FICIs) were calculated, and synergism was defined as FICI values <0.5. Time-kill assays were performed with two clinical isolates (including one strain resistant to trimethoprim-sulphamethoxazole, and one from CF). For this purpose, two different concentrations of colistin (2 and 8 μg/ml, representing concentrations achievable in serum and epithelial lining fluid—ELF, respectively) and NAC (1.6 and 8 mg/ml, likely achievable in ELF by topical administration) were tested alone and in combination.

[2] = system: colistin resistant A. baumannii clinical isolates; assay: as above; assay type: cell-based, Acinetobacter baumannii; settings: for MIC: Acinetobacter baumannii
Experimental: as §1
Classic checkerboard assays were used to investigate potential synergism between colistin (range 0.25-256 μg/ml) and NAC (range 0.5-32 mg/ml). Fraction inhibitory concentration indices (FICIs) were calculated, and synergism was defined as FICI values <0.5. Synergy between colistin and NAC was also confirmed by time-kill assays performed with one isolate, using two different concentrations of colistin (2 and 8 μg/ml, representing concentrations achievable in serum and epithelial lining fluid—ELF, respectively) and NAC (1.6 and 8 mg/ml, likely achievable in ELF by topical administration).

[3] = twenty S. maltophilia clinical isolates
[4] = seven colistin resistant A. baumannii clinical isolates

| MIC ([1]; nine S. maltophilia isolates) [mg/mL] | MIC ([1]; one S. maltophilia isolate) [mg/mL] | MIC ([1]; the remaining S. maltophilia isolates) [mg/mL] | MIC ([2]; isolate N50, read-out: NAC MIC) [mg/mL] | MIC ([2]; the remaining A. baumannii isolates, read-out: MIC of NAC) [mg/mL] | MIC ([2]; two of seven A. baumannii isolates, read-out: MIC of NAC) [mg/mL] | Molecule | MIC50 [1, 3] [mg/mL] | MIC90 [1, 3] [mg/mL] | Colistin MIC ([2]; isolate N50) [mg/mL] | MIC50 [2, 4] [mg/mL] | MIC90 [2, 4] [mg/mL] | colistin MIC range [2, 4] [mg/mL] | colistin 8 μg/ml as multiple of MIC ([2]; strain Z165) [×MIC] | colistin 8 μg/ml as multiple of MIC ([2]; strain Z167) [×MIC] |
| --- | --- | --- | --- | --- | --- | --- | --- | --- | --- | --- | --- | --- | --- | --- |
| 16 | > 32 | 32 | > 32 | > 32 | 32 | CC(=O)N[C@@H](CS)C(=O)O [NAC, N-acetylcysteine] |  |  |  |  |  |  |  |  |
|  |  |  |  |  |  | colistin sulfate | 0.016 | 0.064 | 0.016 | 0.064 | 0.128 | 0.016 to 0.256 | 0.25 | 0.06 |
